Results on 79 compounds are retold here after the METLIN SMRT retention time set (Domingo-Almenara et al. 2019).

The series can be described thus: gradient 5% acetonitrile 3 min, to 50% in 2 min, to 85% in 15 min, held 3 min, 100 µL/min. The conditions noted are these: column: Zorbax Extend-C18 2.1 x 50 mm; eluents: water / acetonitrile, 0.1% formic acid. In a few lines:
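Data were gathered over 3 months by HPLC coupled to a quadrupole time-of-flight mass spectrometer, operated in positive and negative ionization mode. Mixtures of ~100 pure standards ran on a Zorbax Extend-C18 column (2.1 × 50 mm, 1.8 μm) at 100 μL/min, with water and acetonitrile each containing 0.1% formic acid and dead and dwell volumes of 40 μL and 900 μL. Retention time was read from adduct peaks picked by computer and checked manually.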
`O=C1CC(C(=O)N2CCc3ccccc32)CN1CCc1c[nH]c2ccc(Cl)cc12` (centres undefined) showed an RP-LC retention time of 880 s.

As for `COC(=O)c1cc(OC)c(OC)cc1NC(=O)CCc1ccc(C)o1`, the RP-LC retention time is 919 s.

Turning to `COc1ccc(OC)c(NC(=O)N2CCCC2c2nc(-c3ccccc3OC)no2)c1` (centres undefined), the RP-LC retention time stood at 906 s.

Regarding `CCc1noc(NC(C)=O)c1-c1ccc(OC)c(S(=O)(=O)Nc2ccc(Cl)cc2C)c1`, the RP-LC retention time worked out at 841 s.

As to `Cc1nc(NC(=O)c2ccc(-n3ccnc3)nn2)sc1C`, the RP-LC retention time turned out to be 589 s.

The compound `O=C(CN1C(=O)C2CCCCC2C1=O)N1CCN(Cc2ccc3c(c2)OCO3)CC1` (centres undefined) returned an RP-LC retention time of 603 s.

`CCN1c2ccc(F)cc2C(=O)NC12CCN(C(=O)c1ccc(F)cc1)CC2`: the RP-LC retention time came to 714 s.

For the compound `COc1cccc(Nc2nc3ccncc3n(C(C)C)c2=O)c1`, the RP-LC retention time came to 680 s.

For the compound `CCOC(=O)c1cccc(Nc2c(-c3ccccc3)nc3cnccn23)c1`, the RP-LC retention time was 875 s.

With `C=CCNC(=O)CCc1c(-c2ccc(F)cc2)nc2ccccn12`, the RP-LC retention time was 589 s.

The compound `CCOCC(=O)N1C[C@H]2C[C@H](C1)[C@H]1CCCC(=O)N1C2` showed an RP-LC retention time of 582 s.

In turn, `Cc1ccc(S(=O)(=O)N2CCN(C3CCN(Cc4cccnc4)C3=O)CC2)c(C)c1` (centres undefined) displayed an RP-LC retention time of 610 s.

Take `CCOC(=O)c1cccc(Nc2c(-c3ccc(SC)cc3)nc3cnccn23)c1`: the RP-LC retention time worked out at 950 s.

As to `O=C1CC(c2ccc(O)cc2)Oc2cc(O)cc(O)c21` (centres undefined), the RP-LC retention time was determined as 784 s.

The compound `Cc1nn2c(CNS(=O)(=O)c3ccc(Cl)cc3)c(-c3ccccc3)nc2s1` showed an RP-LC retention time of 932 s.

In the case of `CCc1ccc(-c2noc(Cn3c(=O)n(-c4ccc(Cl)cc4)c(=O)c4sccc43)n2)cc1`, the RP-LC retention time was 1160 s.

`Cc1cc(=O)n(CC(=O)N2CCc3ccccc32)c(N2CCCC2)n1` gave an RP-LC retention time of 664 s.

For the compound `Fc1ccccc1N1CCN(c2ncccc2-c2nnc(-c3ccccc3)o2)CC1`, the RP-LC retention time amounted to 1150 s.

`COc1ccc(CNC(=O)CS(=O)(=O)c2cccs2)cc1` displayed an RP-LC retention time of 676 s.

The compound `CCCCN1C(=O)C(NC(=O)c2cccc(OC)c2)(C(F)(F)F)C(C(C)=O)=C1C` (centres undefined) came in with an RP-LC retention time of 916 s.

Compound `Cc1cc(F)ccc1NC(=O)C1CCCN1S(C)(=O)=O` (centres undefined) showed an RP-LC retention time of 701 s.

`CCCCN(C)S(=O)(=O)c1ccccc1-c1nc(-c2ccc(F)cc2)no1` registered an RP-LC retention time of 1110 s.

Turning to `CCCC(=O)Nc1ccc2c(c1)nc(CN1CCCC1)n2C(C)C`, the RP-LC retention time stood at 586 s.

Take `CCN(CC)C(=O)c1ccc2c(c1)N(CC(=O)NCc1ccco1)C(=O)C1CCCCN21` (centres undefined): the RP-LC retention time amounted to 783 s.

For `Cc1ccc(N2CCOCC2)c2c1C(=O)c1ccccc1C2=O`, the RP-LC retention time was 927 s.

Turning to `Cc1ccc(-c2cc(C(=O)N3CCCC3)n(C)c2)cc1`, the RP-LC retention time was found to be 965 s.

Regarding `O=C(c1cccc(Cl)c1)N1CCc2nc(-c3ccc(Cl)cc3)ncc2C1`, the RP-LC retention time is 1140 s.

Compound `COc1ccc2c(CCNC(=O)c3ccc(C(C)(C)C)cc3)c[nH]c2c1` registered an RP-LC retention time of 982 s.

`COc1ccc(NC(=O)N2CCC(N3C[C@H]4C[C@H](C3)[C@H]3CCCC(=O)N3C4)CC2)cc1OC` had an RP-LC retention time of 611 s.

In the case of `O=C(C1CCC1)N1CCc2c([nH]c3ccccc23)C1c1ccc(Cl)cc1` (centres undefined), the RP-LC retention time was determined as 1230 s.

In the case of `COc1cc(-c2cccc(Cl)c2)nc2ccc(NC(C)=O)cc12`, the RP-LC retention time came to 668 s.

In turn, `COC(=O)C1=CN(c2ccccc2)c2ccccc2S1(=O)=O` showed an RP-LC retention time of 777 s.

As for `Cc1sc(-c2noc(C3CC3)n2)cc1S(=O)(=O)N1CCC(C(=O)N2CCCCCC2)CC1`, the RP-LC retention time turned out to be 1050 s.

For the compound `Cc1cccc(Cn2cc(S(=O)(=O)N3CCOCC3)ccc2=O)c1`, the RP-LC retention time is 789 s.

Turning to `CCCN1CCCCc2cc(C(=O)N(C)CC(=O)NC)sc21`, the RP-LC retention time worked out at 791 s.

For the compound `O=C(NCc1cccnc1Oc1ccccc1)c1ccco1`, the RP-LC retention time amounted to 685 s.

For `CCc1cccc(Nc2c(-c3nc(C)no3)cnc3nc(C)ccc23)c1`, the RP-LC retention time came out at 835 s.

`Cc1oc(-c2ccc(C(=O)NCCN3CCCC3)cc2)nc1COc1ccccc1` returned an RP-LC retention time of 698 s.

On to `COc1ccc(S(=O)(=O)Nc2cc(-c3cn4ccccc4n3)ccc2C)cc1C`, for which the RP-LC retention time came to 682 s.

In turn, `COc1cccc(-c2noc(C3CCCN3C(=O)c3ccc(C)s3)n2)c1` (centres undefined) showed an RP-LC retention time of 997 s.

With `CCCc1noc(C2CCCCN2CC(=O)Nc2ccc(F)c(Cl)c2)n1` (centres undefined), the RP-LC retention time stood at 1110 s.

The compound `CCc1nc(-c2csc(S(=O)(=O)N3CCC(C(=O)Nc4cc(C)cc(C)c4)CC3)c2)no1` had an RP-LC retention time of 1090 s.

`Cn1c(=O)c(=O)n(CC(=O)NCc2cccc(Br)c2)c2cccnc21`: the RP-LC retention time was found to be 717 s.

For `CC1CCN(C(=O)c2nc3ccccn3c2-c2ccsc2)CC1`, the RP-LC retention time was 711 s.

Compound `Cc1cc(F)ccc1NS(=O)(=O)c1cc2n(c1)CCCN(C)C2=O` showed an RP-LC retention time of 687 s.

Regarding `O=C(NC1CCCCCCC1)c1nnc(-c2ccc(S(=O)(=O)N3CCCC3)cc2)o1`, the RP-LC retention time is 1070 s.

In turn, `Cc1ccc(NS(=O)(=O)c2cc(-c3[nH]ncc3C(=O)N3CCCC3)oc2C)c(C)c1` had an RP-LC retention time of 746 s.

`O=C1c2cccc3cccc(c23)C(=O)N1CC(=O)N1CCCc2ccccc21`: the RP-LC retention time was 593 s.

`CC(C)c1cccc(NC(=O)C2CCCN(c3cn[nH]c(=O)c3)C2)c1` (centres undefined) displayed an RP-LC retention time of 692 s.

Compound `Cc1cc2nc(NCCCO)n(CC(=O)c3cc(C(C)(C)C)c(O)c(C(C)(C)C)c3)c2cc1C` registered an RP-LC retention time of 1030 s.

For the compound `CC(=O)c1ccc(Nc2c(C(=O)N3CCCC3)cnc3nc(C)ccc23)cc1`, the RP-LC retention time is 584 s.

With `c1ccc(-c2ccc(CNCc3ccc4c(c3)OCO4)o2)cc1`, the RP-LC retention time was 698 s.

Take `CC(C)N1C(=O)c2cccnc2Sc2cc(NC(=O)Cc3ccccc3Cl)ccc21`: the RP-LC retention time is 906 s.

In turn, `O=C(Nc1ccc(SCC(=O)N2CCN(c3ccccc3)CC2)nn1)c1ccccc1` had an RP-LC retention time of 796 s.

In turn, `CCc1onc(C)c1C1CCCN1C(=O)Nc1ccccc1OC` (centres undefined) registered an RP-LC retention time of 825 s.

With `COc1ccc(CCNC(=O)C2CCCN(c3ncnc4c3nc3n4CCCCC3)C2)c(OC)c1` (centres undefined), the RP-LC retention time came out at 778 s.

Turning to `O=C(NC1CC1)c1c2c(nc3ccc(F)cc13)CCC2`, the RP-LC retention time came out at 650 s.

With `O=C(Cn1ncc2c(c1=O)N(C1CC1)C(=O)CS2)NCc1ccc2c(c1)OCO2`, the RP-LC retention time is 682 s.

Compound `CCS(=O)(=O)c1ccc2c(c1)N(Cc1nc(-c3ccc(OC(F)(F)F)cc3)no1)C(=O)CO2` gave an RP-LC retention time of 1030 s.

`CC(C)n1c(=O)oc2cc(-c3noc(-c4cccc(Br)c4)n3)ccc21` gave an RP-LC retention time of 1340 s.

In the case of `O=C([C@H]1C[C@@H](F)CN1S(=O)(=O)c1ccc(F)c(Cl)c1)N1CCOCC1`, the RP-LC retention time is 731 s.

Regarding `CCOc1ccc(S(=O)(=O)N2CCC(C(=O)NC3CCCC3)CC2)cc1`, the RP-LC retention time worked out at 632 s.

As for `COc1ccc(-c2cc3nn(CC(=O)Nc4ccccc4F)c(=O)n3c(C)n2)cc1`, the RP-LC retention time was found to be 901 s.

Compound `Cc1ccc(N2C(=O)N(CC(=O)N3CCC(C)CC3)C3CS(=O)(=O)CC32)cc1Cl` (centres undefined) came in with an RP-LC retention time of 879 s.

As to `O=C(NCc1ccco1)C1CCN(Cc2cc3ccccc3n2Cc2ccc(Cl)cc2)CC1`, the RP-LC retention time came to 783 s.

In turn, `CC1(C(=O)NC2CCCCC2)CN(S(=O)(=O)c2ccccc2)CC(=O)N1c1ccc(F)cc1` (centres undefined) had an RP-LC retention time of 959 s.

The compound `NC(=O)CSc1nnc(N2CCN(C(=O)c3ccccc3[N+](=O)[O-])CC2)s1` yielded an RP-LC retention time of 567 s.

`Cc1ccc(-c2noc(Cn3c(=O)n(-c4ccc(F)cc4)c(=O)c4sccc43)n2)cc1C`: the RP-LC retention time was 1080 s.

On to `Cc1ccc(Nc2c(-c3ccc(N4CCOCC4)cc3)nc3ccc(C)cn23)cc1`, for which the RP-LC retention time came to 739 s.

As to `CC(C)Cn1nc(CNC(=O)c2ccoc2)c2ccccc21`, the RP-LC retention time worked out at 846 s.

In the case of `Cc1ccc(C)c(N2CCN(c3ccnc(SCC(=O)Nc4ccc(C(C)C)cc4)n3)CC2)c1`, the RP-LC retention time turned out to be 1060 s.

`COc1ccc(N2CCN(c3cc(SCC(=O)Nc4ccc(F)cc4C)ncn3)CC2)cc1` had an RP-LC retention time of 959 s.

The compound `CCC(=O)N(CCCOC)CC(=O)N1CCc2sccc2C1COc1ccccc1F` (centres undefined) showed an RP-LC retention time of 912 s.

Regarding `Cc1onc(-c2ccccc2Cl)c1C(=O)N1CC2CC1C(=O)O2` (centres undefined), the RP-LC retention time was 693 s.

In the case of `CCCS(=O)(=O)N1CCOc2ccc(NC(=O)NCC)cc2C1`, the RP-LC retention time is 696 s.

On to `Cc1nc(-c2ccccn2)cc2nn(CC(=O)N3CCCc4ccccc43)c(=O)n12`, for which the RP-LC retention time turned out to be 789 s.

For the compound `COc1ccc(CCNC(=O)C2CC(=O)N(c3n[nH]c4ccccc34)C2)cc1OC` (centres undefined), the RP-LC retention time worked out at 657 s.

`Cc1ccccc1OCc1nc(CCN(C)C(=O)CC2CCCC2)no1` yielded an RP-LC retention time of 1020 s.

Take `CCOc1ccc2nc(Nc3ncc4c(n3)CC(c3ccc(F)cc3)CC4=O)nc(C)c2c1` (centres undefined): the RP-LC retention time is 833 s.
